Experimental data taken from patent US20230159511A1, “TETRAHYDROISOQUINOLINE COMPOUNDS AS NRF2 ACTIVATORS” (C4X Discovery Limited, priority 2020, published 2023).
Like-named read-outs stand apart in the source and are kept apart here.

Key:
[1] = target: T1, human KEAP1 (N-term, residues 321-609) (Homo sapiens, UniProt Q14145); test: KEAP1 Kelch Fluorescence Polarization (FP) Assay; format: binding; details: inhibition of Kelch domain-NRF2 interaction; 2 nM FITC-labelled NRF2 peptide, 25 nM KEAP1, 1 h room temperature; compounds below 10 nM cannot be differentiated
T1 construct: human KEAP1 (N-term, residues 321-609)
T1 sequence (Q14145 321-609): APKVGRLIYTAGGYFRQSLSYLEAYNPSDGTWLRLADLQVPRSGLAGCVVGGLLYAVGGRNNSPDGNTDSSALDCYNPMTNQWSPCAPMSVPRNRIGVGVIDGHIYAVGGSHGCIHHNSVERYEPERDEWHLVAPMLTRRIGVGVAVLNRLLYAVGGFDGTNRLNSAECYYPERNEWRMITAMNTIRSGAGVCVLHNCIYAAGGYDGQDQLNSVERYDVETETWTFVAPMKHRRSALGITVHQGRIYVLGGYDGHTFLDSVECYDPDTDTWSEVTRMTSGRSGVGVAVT
How it was run: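 Compounds in 12-point curves (top 10 μM) displaced 2 nM FITC-labelled NRF2 peptide from 25 nM KEAP1 residues 321-609 over 1 h at room temperature. Polarization read at 470/530 nm, window set by 50 μM unlabelled peptide; four-parameter fit gave IC50, floor 10 nM.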

[2] = system: NRF2 mediated gene NAD(P)H:quinone acceptor oxidoreductase 1 (NQO1) in BEAS-2B cells; test: Beas2B NQO1 mRNA Cell Based Assay; parameters: species or system human; details: Homo sapiens
Procedure: Beas2B NQO1 mRNA Cell Based Assay
The up regulation of the NRF2 mediated gene NAD(P)H:quinone acceptor oxidoreductase 1 (NQO1) was measured using the following assay method: BEAS-2B cells (ATCC CRL-9609) were plated in 96-well clear plates at 20,000 cells/well in 75 μL of cell culture media and incubated overnight (37° C., 5% CO2). On day 2, 25 μL of compound or controls were added to the cells for 24 h. On day 3, the medium was aspirated from the plate and the Cells-to-CT™ 1-Step TaqMan® Kit (Ambion A25603) was used to perform expression analysis directly from cultured cells without RNA purification according to the manufacturer's instructions.
Briefly, cells were washed with ice cold PBS and 22.5 μL of room-temperature DNase/Lysis solution was added to the cells and incubated at room temperature for 5 minutes. To stop the reaction, 2.25 μL of stop solution was added to the cell lysate. The samples were diluted 1:5 using nuclease free water and 2.5 μL transferred into the PCR plate. Real-time PCR was performed using the C-1000 Thermal Cycler (Bio-Rad) using human beta actin as the internal control. The cDNA was amplified with a specific primer for NQO1 using the 1-step RT-PCR master mix (Ambion Cells-to-CTTM 1-Step TaqMan® Kit A25603). The primers/probes sets that were used for amplification of cDNA were obtained from TaqMan Gene Expression Assays (Applied Biosystems). The comparative CT (ΔΔCT) relative quantification method was used to calculate the relative mRNA level of the target gene NQO1 as described in the Applied Biosystems Chemistry Guide. The data are expressed as an increase in target gene mRNA compared to vehicle (0.1% DMSO) control and the EC50 values were determined by fitting the data to a four parameter logistic fit using XLfit or XE Runner within ActivityBase.

[3] = BEAS-2B cells, compound for 24 h, increase in NQO1 mRNA compared to vehicle (0.1% DMSO) control, read-out: EC50

SMILES	IC50 [1] [nM]	EC50 [2, 3] [nM]	EC50 ([2]; BEAS-2B, 24 h) [nM]
CNC(=O)[C@H]1CCCC[C@H]1C(=O)N1CCc2c(Cl)ccc(OCc3cncnc3)c2[C@H]1CN1CCCC1=O [Example 64, (1S,2R)-2-((S)-5-chloro-1-((2-oxopyrrolidin-1-yl)methyl)-8-(pyrimidin-5-ylmethoxy)-1,2,3,4-tetrahydroisoquinoline-2-carbonyl)-N-methylcyclohexane-1-carboxamide]	41	5750	–
CNC(=O)[C@H]1CCCC[C@H]1C(=O)N1CCc2c(Cl)ccc(OCCc3cn(C)nn3)c2[C@H]1CN1CCCC1=O [Example 66, (1S,2R)-2-((S)-5-chloro-8-(2-(1-methyl-1H-1,2,3-triazol-4-yl)ethoxy)-1-((2-oxopyrrolidin-1-yl)methyl)-1,2,3,4-tetrahydroisoquinoline-2-carbonyl)-N-methylcyclohexane-1-carboxamide]	151	5660	–
CNC(=O)N1CCC[C@H]1C(=O)N1CCc2c(Cl)ccc(OCc3nnn(C)c3C(F)F)c2[C@H]1CN1CCCC1=O [Example 67, (S)-2-((S)-5-chloro-8-((5-(difluoromethyl)-1-methyl-1H-1,2,3-triazol-4-yl)methoxy)-1-((2-oxopyrrolidin-1-yl)methyl)-1,2,3,4-tetrahydroisoquinoline-2-carbonyl)-N-methylpyrrolidine-1-carboxamide]	29	–	1360
CNC(=O)[C@H]1CCCC[C@H]1C(=O)N1CCc2c(Cl)ccc(OCc3cnc4c(c3)ncn4C)c2[C@H]1CN1CCCC1=O [Example 68, (1S,2R)-2-((S)-5-chloro-8-((3-methyl-3H-imidazo[4,5-b]pyridin-6-yl)methoxy)-1-((2-oxopyrrolidin-1-yl)methyl)-1,2,3,4-tetrahydroisoquinoline-2-carbonyl)-N-methylcyclohexane-1-carboxamide]	13	145	–
CNC(=O)[C@@]1(C)CCCC[C@H]1C(=O)N1CCc2c(Cl)ccc(OCc3nnn(C)c3C(F)F)c2[C@H]1CN1CCCC1=O [Example 69, (1S,2R)-2-((S)-5-chloro-8-((5-(difluoromethyl)-1-methyl-1H-1,2,3-triazol-4-yl)methoxy)-1-((2-oxopyrrolidin-1-yl)methyl)-1,2,3,4-tetrahydroisoquinoline-2-carbonyl)-N,1-dimethylcyclohexane-1-carboxamide]	14	239	–
CNC(=O)[C@H]1CCCC[C@H]1C(=O)N1CCc2c(Cl)ccc(OCc3noc4ncccc34)c2[C@H]1CN1CCCC1=O [Example 70, (1S,2R)-2-((S)-5-chloro-8-(isoxazolo[5,4-b]pyridin-3-ylmethoxy)-1-((2-oxopyrrolidin-1-yl)methyl)-1,2,3,4-tetrahydroisoquinoline-2-carbonyl)-N-methylcyclohexane-1-carboxamide]	29	295	–
CNC(=O)[C@H]1CCCC[C@H]1C(=O)N1CCc2c(Cl)ccc(OCc3ccc4c(C)noc4n3)c2[C@H]1CN1CCCC1=O [Example 71, (1S,2R)-2-((S)-5-chloro-8-((3-methylisoxazolo[5,4-b]pyridin-6-yl)methoxy)-1-((2-oxopyrrolidin-1-yl)methyl)-1,2,3,4-tetrahydroisoquinoline-2-carbonyl)-N-methylcyclohexane-1-carboxamide]	17	116	–
CNC(=O)[C@H]1CCCC[C@H]1C(=O)N1CCc2c(Cl)ccc(OCc3ccc4c(c3)nnn4C)c2[C@H]1CN1CCCC1=O [Example 72, (1S,2R)-2-((S)-5-chloro-8-((1-methyl-1H-benzo[d][1,2,3]triazol-5-yl)methoxy)-1-((2-oxopyrrolidin-1-yl)methyl)-1,2,3,4-tetrahydroisoquinoline-2-carbonyl)-N-methylcyclohexane-1-carboxamide]	27	605	–
CNC(=O)[C@H]1CCCC[C@H]1C(=O)N1CCc2c(Cl)ccc(OCc3nnc4ccccn34)c2[C@H]1CN1CCCC1=O [Example 73, (1S,2R)-2-((S)-8-([1,2,4]triazolo[4,3-a]pyridin-3-ylmethoxy)-5-chloro-1-((2-oxopyrrolidin-1-yl)methyl)-1,2,3,4-tetrahydroisoquinoline-2-carbonyl)-N-methylcyclohexane-1-carboxamide]	9.4	288	–
CNC(=O)[C@H]1CCCC[C@H]1C(=O)N1CCc2c(Cl)ccc(OCc3cn(C)nn3)c2[C@H]1CN1CCCC1=O [Example 74, (1S,2R)-2-((S)-5-chloro-8-((1-methyl-1H-1,2,3-triazol-4-yl)methoxy)-1-((2-oxopyrrolidin-1-yl)methyl)-1,2,3,4-tetrahydroisoquinoline-2-carbonyl)-N-methylcyclohexane-1-carboxamide]	16	334	–
CNC(=O)[C@H]1CCCC[C@H]1C(=O)N1CCc2c(Cl)ccc(OCc3cn4cccnc4n3)c2[C@H]1CN1CCCC1=O [Example 75, (1S,2R)-2-((S)-5-chloro-8-(imidazo[1,2-a]pyrimidin-2-ylmethoxy)-1-((2-oxopyrrolidin-1-yl)methyl)-1,2,3,4-tetrahydroisoquinoline-2-carbonyl)-N-methylcyclohexane-1-carboxamide]	73	2170	–
CNC(=O)[C@H]1CCCC[C@H]1C(=O)N1CCc2c(Cl)ccc(OCc3nnn(C)c3C(F)F)c2[C@H]1CN1Cc2ccccc2C1=O [Example 76, (1S,2R)-2-((S)-5-chloro-8-((5-(difluoromethyl)-1-methyl-1H-1,2,3-triazol-4-yl)methoxy)-1-((1-oxoisoindolin-2-yl)methyl)-1,2,3,4-tetrahydroisoquinoline-2-carbonyl)-N-methylcyclohexane-1-carboxamide]	11	166	–
CNC(=O)[C@H]1CCCC[C@H]1C(=O)N1CCc2c(Cl)ccc(OCc3nnc4ccccn34)c2[C@H]1CN1Cc2ccccc2C1=O [Example 77, (1S,2R)-2-((S)-8-([1,2,4]triazolo[4,3-a]pyridin-3-ylmethoxy)-5-chloro-1-((1-oxoisoindolin-2-yl)methyl)-1,2,3,4-tetrahydroisoquinoline-2-carbonyl)-N-methylcyclohexane-1-carboxamide]	7.2	77	–
O=C(NCC(F)(F)CO)[C@H]1CCCC[C@H]1C(=O)N1CCc2c(Cl)ccc(OCc3noc4ccccc34)c2[C@H]1CN1CCCC1=O [Example 78, (1S,2R)-2-((S)-8-(benzo[d]isoxazol-3-ylmethoxy)-5-chloro-1-((2-oxopyrrolidin-1-yl)methyl)-1,2,3,4-tetrahydroisoquinoline-2-carbonyl)-N-(2,2-difluoro-3-hydroxypropyl)cyclohexane-1-carboxamide]	110	> 10000	–
CNC(=O)N1CCCC[C@H]1C(=O)N1CCc2c(Cl)ccc(OCc3nnn(C)c3C(F)F)c2[C@H]1CN1CCCC1=O [Example 79, (S)-2-((S)-5-chloro-8-((5-(difluoromethyl)-1-methyl-1H-1,2,3-triazol-4-yl)methoxy)-1-((2-oxopyrrolidin-1-yl)methyl)-1,2,3,4-tetrahydroisoquinoline-2-carbonyl)-N-methylpiperidine-1-carboxamide]	14	336	–
